The values below come from US12667559B2, “Dihydronaphthyridinone compound, and preparation method therefor and medical use thereof” (GENFLEET THERAPEUTICS (SHANGHAI) INC., priority 2020, dated 2026).

One experiment concerns U937 cells. In words: Inhibitory activity against TNF-α induced programmed cell necrosis (U937 cells, CellTiter-Glo). The experiment is classed as cell-based, human. As to conditions: Homo sapiens, U-937, 48 h, U937 cells, human TNF-α and Q-VD-Oph induced necrosis, 48 hours, survival rate; read-out: U937 IC50. For orientation: ATP-based viability assays read luminescence as a measure of living cells.
Broadly, the IC50 is the point on the concentration scale where inhibition reaches its midpoint. As to `Cc1cc(-c2cnc3c(c2)C(=O)N(c2cnn(C(C)c4ccc(F)cc4)c2)CC3)n2ncnc(N)c12` (stereo not drawn) [Z97], the IC50 amounted to 0.2 nM.
`Nc1nc2cc(-c3cnc4c(c3)C(=O)N(Cc3cccnc3OC3CC3)CC4)ccn2n1` [Z77]: the IC50 turned out to be 143 nM.
In the case of `CC(=O)Nc1cn2nc(-c3cnc4c(c3)C(=O)N(Cc3cc(F)cc(F)c3OC3CCOC3)CC4)ccc2n1` (stereo not drawn) [Z3, N-(6-(6-(3,5-difluoro-2-((tetrahydrofuran-3-yl)oxy)benzyl)-5-oxo-5,6,7,8-tetrahydro-1,6-naphthyridin-3-yl)imidazo[1,2-b]pyridazin-2-yl)acetamide], the IC50 amounted to 1.4 nM.
With `Nc1nc2cc(-c3cnc4c(c3)C(=O)N(Cc3cc(F)cc(F)c3OCC3CC3)CC4)ccn2n1` [Z67], the IC50 worked out at 0.5 nM.
Consider `O=C1c2cc(-c3ccn4ncnc4c3)cnc2CCN1Cc1cc(F)cc(F)c1OC1CCOCC1` [Z13, 3-([1,2,4]triazolo[1,5-a]pyridin-7-yl)-6-(3,5-difluoro-2-((tetrahydro-2H-pyran-4-yl)oxy)benzyl)-7,8-dihydro-1,6-naphthyridin-5(6H)-one], for which the IC50 amounted to 1.7 nM.
Regarding `C[C@H](c1ccc(F)cc1)n1cc(N2CCc3ncc(-c4cc(C(F)(F)F)c5c(N)ncnn45)cc3C2=O)cn1` (single isomer, unassigned) [Z35-1], the IC50 is 0.3 nM.
As for `CC(=O)Nc1cn2nc(-c3cnc4c(c3)C(=O)N(Cc3cccc(OC(F)(F)F)c3)CC4)ccc2n1` [Z8, N-(6-(5-oxo-6-(3-(trifluoromethoxy)benzyl)-5,6,7,8-tetrahydro-1,6-naphthyridin-3-yl)imidazo[1,2-b]pyridazin-2-yl)acetamide], the IC50 turned out to be 40.3 nM.
Still for that read-out and setting: with `C[C@@](O)(C(=O)N1CC[C@H](N2CCc3ncc(-c4cc(C(F)(F)F)c5c(N)ncnn45)cc3C2=O)C1)C(F)(F)F` [Z32] the figure was 26.8 nM; with `C[C@@](O)(C(=O)N1C[C@@H](F)[C@@H](N2CCc3ncc(-c4ccc5c(N)ncnn45)cc3C2=O)C1)C(F)(F)F` [Z31-1], 7.4 nM; with `C[C@@H](c1ccc(F)cc1)n1cc(N2CCc3ncc(-c4cc(C(F)(F)F)c5c(N)ncnn45)cc3C2=O)cn1` (single isomer, unassigned) [Z35-2], 0.2 nM.
As for `CC(=O)Nc1cn2nc(-c3cnc4c(c3)C(=O)N(Cc3cc(F)ccc3OC3CCCC3)CC4)ccc2n1` [Z6, N-(6-(6-(2-(cyclopentyloxy)-5-fluorobenzyl)-5-oxo-5,6,7,8-tetrahydro-1,6-naphthyridin-3-yl)imidazol[1,2-b]pyridazin-2-yl)acetamide], the IC50 turned out to be 0.4 nM.
For the compound `Nc1nc2cc(-c3cnc4c(c3)C(=O)N(Cc3cc(F)ccc3OC(F)(F)F)CC4)ccn2n1` [Z102, 3-(2-amino-[1,2,4]triazolo[1,5-a]pyridyl-7-yl)-6-(5-fluoro-2-(trifluoromethoxy)benzyl)-7,8-dihydro-1,6-naphthyridin-5(6H)-one], the IC50 came to 21.1 nM.
For the compound `Nc1nc2cc(-c3cnc4c(c3)C(=O)N(Cc3cc(F)ccc3OC3CC3)CC4)ccn2n1` [Z76], the IC50 was 4.1 nM.
For the compound `CC(=O)Nc1cn2nc(-c3cnc4c(c3)C(=O)N(Cc3cc(OC(F)(F)F)ccc3F)CC4)ccc2n1` [Z9, N-(6-(6-(2-fluoro-5-(trifluoromethoxy)benzyl)-5-oxo-5,6,7,8-tetrahydro-1,6-naphthyridin-3-yl)imidazo[1,2-b]pyridazin-2-yl)acetamide], the IC50 came to 10.4 nM.
Regarding `CC(=O)Nc1cn2nc(-c3cnc4c(c3)C(=O)N(c3cnn(C(C)c5ccc(F)cc5)c3)CC4)ccc2n1` (stereo not drawn) [Z1], the IC50 was found to be 2.8 nM.
On to `O=C(CO)Nc1cn2nc(-c3cnc4c(c3)C(=O)N(Cc3cc(F)cc(F)c3OC3CCOCC3)CC4)ccc2n1` [Z39, N-(6-(6-(3,5-difluoro-2-((tetrahydro-2H-pyran-4-yl)oxy)benzyl)-5-oxo-5,6,7,8-tetrahydro-1,6-naphthyridin-3-yl)imidazo[1,2-b]pyridazin-2-yl)-2-hydroxyacetamide], for which the IC50 is 0.9 nM.
Regarding `Nc1nc2cc(-c3cnc4c(c3)C(=O)N(Cc3cc(F)ccc3OC3CCOCC3)CC4)ccn2n1` [Z65], the IC50 came to 0.5 nM.
For the compound `Cc1nc2c(cc1-c1ccn3nc(N)nc3c1)C(=O)N(Cc1cc(OC(F)(F)F)ccc1F)CC2` [Z57, 3-(2-amino-[1,2,4]triazolo[1,5-a]pyridyl-7-yl)-6-(2-fluoro-5-(trifluoromethoxy)benzyl)-2-methyl-7,8-dihydro-1,6-naphthyridin-5(6H)-one], the 50% inhibitory concentration (IC50) is 2 nM.
Still for that read-out and setting: with `CC(c1ccc(F)cc1)n1cc(N2CCc3ncc(-c4cc(C(F)(F)F)c5c(N)ncnn45)cc3C2=O)cn1` (stereo not drawn) [Z35] the figure was 0.3 nM; with `Nc1nc2cc(-c3cnc4c(c3)C(=O)N(Cc3cc(F)ccc3OC3CCOC3)CC4)ccn2n1` (stereo not drawn) [Z66], 2.3 nM.
Regarding `C[C@@](O)(C(=O)N1C[C@@H](N2CCc3ncc(-c4ccc5c(N)ncnn45)cc3C2=O)[C@@H](F)C1)C(F)(F)F` [Z31, cis-3-(4-aminopyrrolo[2,1-f][1,2,4]triazin-7-yl)-6-(4-fluoro-1-((R)-3,3,3-trifluoro-2-hydroxy-2-methylpropionyl)pyrrolidin-3-yl)-7,8-dihydro-1,6-naphthyridin-5(6H)-one], the IC50 was found to be 18.2 nM.
On to `O=C(COCc1ccccc1)Nc1cn2nc(-c3cnc4c(c3)C(=O)N(Cc3cc(F)cc(F)c3OC3CCOCC3)CC4)ccc2n1` [Z94, 2-(Benzoxy)-N-(6-(6-(3,5-difluoro-2-((tetrahydro-2H-pyran-4-yl)oxy)benzyl)-5-oxo-5,6,7,8-tetrahydro-1,6-naphthyridin-3-yl)imidazo[1,2-b]pyridazin-2-yl)acetamide], for which the IC50 is 2.5 nM.
In the case of `O=C1c2cc(-c3ccncc3)cnc2CCN1Cc1cc(F)cc(F)c1OC1CCOCC1` [Z11, 6-(3,5-difluoro-2-((tetrahydro-2H-pyran-4-yl)oxy)benzyl)-3-(pyridin-4-yl)-7,8-dihydro-1,6-naphthyridin-5(6H)-one], the IC50 worked out at 31.2 nM.
For `Nc1ncnn2c(-c3cnc4c(c3)C(=O)N(C3CN(C(=O)c5ccc(F)cc5)CC3F)CC4)cc(C(F)(F)F)c12` (stereo not drawn) [Z36, cis-3-(4-amino-5-(trifluoromethyl)pyrrolo[2,1-f][1,2,4]triazin-7-yl)-6-(4-fluoro-1-(4-fluorobenzoyl)pyrrolidin-3-yl)-7,8-dihydro-1,6-naphthyridin-5(6H)-one], the IC50 turned out to be 45.3 nM.

The same experiment, now with this note: U937 cells, human TNF-α and Q-VD-Oph induced necrosis, 48 hours, survival rate; read-out: U937 IC50.
Turning to `CC(c1cc(F)ccc1-c1cnn(C)c1)N1CCc2ncc(-c3ccn4nc(N)nc4c3)cc2C1=O` (stereo not drawn) [Z80, 3-(2-amino-[1,2,4]triazolo[1,5-a]pyridyl-7-yl)-6-(1-(5-fluoro-2-(1-methyl-1H-pyrazol-4-yl)phenyl)ethyl)-7,8-dihydro-1,6-naphthyridin-5(6H)-one], the IC50 turned out to be 19.8 nM.
As for `Cc1cc(-c2cnc3c(c2)C(=O)N([C@@H]2CN(C(=O)[C@@](C)(O)C(F)(F)F)C[C@@H]2F)CC3)n2ncnc(N)c12` (single isomer, unassigned) [Z30-2], the IC50 was found to be 3.4 nM.
`CC(c1ccc(F)cc1)n1cc(N2CCc3ncc(-c4ccn5nc(N)nc5c4)cc3C2=O)cn1` (stereo not drawn) [Z64]: the IC50 was found to be 2 nM.
As for `C[C@@](O)(C(=O)N1C[C@@H](N2CCc3ncc(-c4cc(C(F)(F)F)c5c(N)ncnn45)cc3C2=O)[C@@H](F)C1)C(F)(F)F` (mixture of isomers) [Z27, cis-3-(4-amino-5-(trifluoromethyl)pyrrolo[2,1-f][1,2,4]triazin-7-yl)-6-(4-fluoro-1-((R)-3,3,3-trifluoro-2-hydroxy-2-methylpropionyl)pyrrolidin-3-yl)-7,8-dihydro-1,6-naphthyridin-5(6H)-one], the IC50 is 6 nM.
As for `Cc1cc(-c2cnc3c(c2)C(=O)N([C@@H]2CN(C(=O)[C@@](C)(O)C(F)(F)F)C[C@@H]2F)CC3)n2ncnc(N)c12` [Z30, Cis-3-(4-amino-5-methylpyrrolo[2,1-f][1,2,4]triazin-7-yl)-6-(4-fluoro-1-((R)-3,3,3-trifluoro-2-hydroxy-2-methylpropionyl)pyrrolidin-3-yl)-7,8-dihydro-1,6-naphthyridin-5(6H)-one], the IC50 came out at 9.1 nM.
Consider `C[C@@H](c1ccc(F)cc1)n1cc(N2CCc3ncc(-c4ccn5nc(N)nc5c4)cc3C2=O)cn1` (single isomer, unassigned) [Z73], for which the IC50 is 34 nM.

The experiment is the same for the next values; noted with them: U-937; U937 cells, human TNF-α and Q-VD-Oph induced necrosis, 48 hours, survival rate; read-out: U937 IC50.
Take `CC(c1cc(F)ccc1OC(F)(F)F)N1CCc2ncc(-c3ccn4nc(N)nc4c3)cc2C1=O` (stereo not drawn) [Z55, 3-(2-amino-[1,2,4]triazolo[1,5-a]pyridyl-7-yl)-6-(1-(5-fluoro-2-(trifluoromethoxy)phenyl)ethyl)-7,8-dihydro-1,6-naphthyridin-5(6H)-one]: the IC50 is 8 nM.
Consider `Nc1nc2ccc(-c3cnc4c(c3)C(=O)N(Cc3cc(OC(F)(F)F)ccc3F)CC4)cc2[nH]1` [Z18, 3-(2-amino-1H-benzo[d]imidazol-6-yl)-6-(2-fluoro-5-(trifluoromethoxy)benzyl)-7,8-dihydro-1,6-naphthyridin-5(6H)-one], for which the IC50 came to 70.2 nM.
Regarding `Nc1ncnn2c(-c3cnc4c(c3)C(=O)N(Cc3cc(OC(F)(F)F)ccc3F)CC4)cc(C(F)(F)F)c12` [Z24, 3-(4-amino-5-(trifluoromethyl)pyrrolo[2,1-f][1,2,4]triazin-7-yl)-6-(2-fluoro-5-(trifluoromethoxy)benzyl)-7,8-dihydro-1,6-naphthyridin-5(6H)-one], the IC50 came out at 36.5 nM.
Consider `Nc1nc2cc(-c3cnc4c(c3)C(=O)N(Cc3ncccc3OCC3CC3)CC4)ccn2n1` [Z61, 3-(2-amino-[1,2,4]triazolo[1,5-a]pyridyl-7-yl)-6-((3-(cyclopropylmethoxy)pyridyl-2-yl)methyl)-7,8-dihydro-1,6-naphthyridin-5(6H)-one], for which the IC50 was 14 nM.
For the compound `Nc1nc2cc(-c3cnc4c(c3)C(=O)N(Cc3ncccc3OC3CCOCC3)CC4)ccn2n1` [Z62, 3-(2-amino-[1,2,4]triazolo[1,5-a]pyridin-7-yl)-6-((3-((tetrahydro-2H-pyran-4-yl)oxy)pyridin-2-yl)methyl)-7,8-dihydro-1,6-naphthyridin-5(6H)-one], the IC50 turned out to be 13 nM.
For the compound `Nc1nc2cc(-c3cnc4c(c3)C(=O)N(Cc3ccccc3OC(F)(F)F)CC4)ccn2n1` [Z44, 3-(2-amino-[1,2,4]triazolo[1,5-a]pyridyl-7-yl)-6-(2-(trifluoromethoxy)benzyl)-7,8-dihydro-1,6-naphthyridin-5(6H)-one], the IC50 came to 42 nM.
